Experimental data: patent publication US20120157401A1, “METHODS FOR TREATING NEUROFIBROMATOSIS” (PTC Therapeutics, Inc., priority 2009, published 2012)
Marks after values point to notes of the source that are not given here.

Assays:
[1] = tested on: soluble VEGF121 and VEGF165 isoforms; experiment: ELISA of soluble VEGF121/165 production in HeLa cells during hypoxia or normoxia; assay type: cell-based, human; details: 48 hours
Description: Experimental Design. HeLa (human cervical carcinoma) cell cultures were established under normoxic conditions (21% oxygen). HeLa cells increase VEGF production 4- to 5-fold in response to hypoxia. […] At the completion of treatment, the conditioned media were collected and the VEGF protein levels were assayed in an enzyme-linked immunosorbent assay (ELISA) with primary antibodies that recognize the soluble VEGF121 and VEGF165 isoforms (R & D Systems, Minneapolis, Minn., USA). To ensure that decreases in VEGF concentration were not due to cytotoxicity, cultures were assayed using a standard assay ([…]-GLO® Luminescent Cell Viability Assay; Promega, Madison, Wis., USA) that measures total cellular adenosine triphosphate (ATP) concentrations as an indicator of cell viability.

[2] = tested on: soluble VEGF121 and VEGF165 isoforms; experiment: Inhibition of soluble VEGF production in human tumor cell lines (ELISA, EC50); assay type: cell-based
Description: Study Design. […] In these experiments, cultures were established under normoxic conditions (21% oxygen). […] Cells requiring induction of VEGF production were incubated under hypoxic conditions (1% oxygen). At the completion of treatment, the conditioned media were collected and assayed by ELISA (as described in Section 9.1.1.1) for soluble VEGF121 and VEGF165 isoforms; results were calculated as percentage inhibition relative to vehicle treated controls. EC50 values were calculated from the dose concentration response curves.

[3] = tested on: HT1080 tumor cells in vivo; experiment: HT1080 xenograft studies of Compound 1205, Compound #10 and Compound 1330: tumor growth; set-up: species or system athymic nude mice; details: Study 24a, 10 mg/kg QD
Text: Experimental Design. HT1080 cells (5×10^6 cells/mouse) were implanted subcutaneously in male athymic nude mice. […] For comparison, Compound #10 was included in this study.

[4] = tested on: LNCaP xenografts; experiment: LNCaP prostate cancer xenograft: tumor growth (Table 20); assay type: in vivo, athymic nude mice
Description: Experimental Design. The LNCaP cell line is derived from a lymph node metastasis.
Tumor size was measured by calipers at periodic intervals during the study. When the mean tumor size in a mouse exceeded 1500 mm^3, mice in that group were sacrificed and both tumor and plasma were assayed for pathologic VEGF concentration as described in Section 9.1.1.1.

[5] = 14C-Compound #10 tissue distribution by quantitative whole-body autoradiography (Tables 23, 33); assay type: in vivo; details: rats, single oral 50 mg/kg
Description: For the QWBA, the carcasses were prepared by immediately freezing them, embedding them in chilled carboxymethylcellulose, and freezing them into blocks. Appropriate cryomicrotome sections of the blocks at 40 μm thickness were collected on adhesive tape. Mounted sections were tightly wrapped and exposed on phosphorimaging screens along with plastic embedded autoradiographic standards. Exposed screens were scanned and the autoradiographic standard image data were sampled to create a calibrated standard curve. Specified tissues, organs, and fluids were analyzed.

[6] = tested on: soluble VEGF121 and VEGF165 isoforms; experiment: VEGF inhibition EC50 by ELISA in the same human tumor cell lines (Table 25); assay type: cell-based
Description: Results. […] The conditioned media were collected and assayed by ELISA for soluble VEGF121 and VEGF165 isoforms (as described in Section 9.1.1.1); results were calculated as percentage inhibition relative to vehicle treated controls. EC50 values were calculated from the concentration response curves.

[7] = tested on: HT1080 xenografts; experiment: BrdU labeling of cells from HT1080 xenografts grown in nude mice; assay type: in vivo, athymic nude mice; details: Day 1, 2, 3; Compound #10 10 mg/kg oral QD, doxorubicin 6 mg/kg IP, bevacizumab 5 mg/kg IP
Description: Experimental Design. HT1080 cells (5×10^6 cells/mouse) were implanted subcutaneously in male athymic nude mice.
The mice were sacrificed 3 hours later, and the tumors collected. A single cell suspension was prepared from the tumor cells. The cells were permeabilized and an antibody to BrdU was used to stain cells that had entered S phase during the labeling period. The proportion of cells actively synthesizing DNA was determined by cell sorting.

[8] = Oral pharmacokinetics / toxicokinetics in rats; assay type: in vivo, Sprague Dawley rats
Description: The pharmacokinetic evaluations in mice were adjuncts to the primary pharmacodynamic xenograft studies. The evaluations in rats included toxicokinetic assessments in single-dose, 7-day, and 28-day toxicology studies as well as a mass-balance study after a single oral dose of ^14C-Compound #10. The evaluations in dogs included toxicokinetic assessments in 7-day and 28-day toxicology studies. In the studies performed, rodents were dosed once daily with Compound #10 formulated in vehicle and administered via oral gavage.

[9] = In vitro plasma protein binding of 14C-radiolabeled Compound #10; assay type: in vitro ADME, mice, rats, dogs, monkeys, and humans; details: mouse, rat, dog, monkey, human, all species, 0.05 to 50 μg/mL, read-out: Plasma protein binding, overall mean
[10] = molecular target: T1, CYPC19 (Homo sapiens, UniProt P33261); experiment: CYP inhibition: CYPC19; assay type: in vitro ADME; details: human hepatic microsomes or recombinant isoenzymes
T1 construct: host or cells: human hepatic microsomes or recombinant isoenzyme (not distinguished)
Text: It is possible that in certain clinical trial subjects, such agents may need to be adjusted for dosing or replaced by alternative agents that are not metabolized by CYP2D6, particularly when such agents may have a low therapeutic index.

[11] = Phase 1 multiple-dose study in healthy volunteers: safety and tolerability; assay type: in vivo, human
Text: Methods. The trial was a Phase 1, randomized, escalating multiple dose, single center study conducted in 2 stages.

[12] = 28-day oral toxicity study in dogs (15-day recovery)
Description: The L23 vehicle was used. […] All studies in the toxicology program were conducted according to GLP regulations.

[13] = LNCaP xenografts, male athymic nude mice, 10 mg/kg M-W-F oral gavage

T1 sequence (P33261 whole entry): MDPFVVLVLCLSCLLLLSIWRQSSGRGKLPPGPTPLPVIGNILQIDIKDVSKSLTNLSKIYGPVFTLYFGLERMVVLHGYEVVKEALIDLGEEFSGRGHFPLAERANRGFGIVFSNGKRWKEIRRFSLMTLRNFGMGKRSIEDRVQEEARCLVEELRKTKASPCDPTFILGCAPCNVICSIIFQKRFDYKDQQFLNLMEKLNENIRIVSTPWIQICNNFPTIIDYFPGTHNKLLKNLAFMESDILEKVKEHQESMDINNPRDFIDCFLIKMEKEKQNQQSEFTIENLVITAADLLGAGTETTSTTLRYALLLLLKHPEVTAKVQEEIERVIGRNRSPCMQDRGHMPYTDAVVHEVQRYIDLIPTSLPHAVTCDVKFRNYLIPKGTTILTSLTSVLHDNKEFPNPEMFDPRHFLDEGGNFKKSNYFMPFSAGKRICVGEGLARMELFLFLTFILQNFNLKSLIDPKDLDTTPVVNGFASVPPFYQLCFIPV

Question: Which “Inhibition of stress-induced VEGF production (FIG. 25)” value ([1]; hypoxia-induced) does the source give for `COc1ccc(C2c3[nH]c4ccc(Cl)cc4c3CCN2C(=O)Oc2ccc(Cl)cc2)cc1` (racemic) [Compound #10] here?
Answer: inhibit stress-induced VEGF production

Question: What about the “Maximal decrease in VEGF concentration in conditioned media” value ([1]; hypoxic (1% oxygen)) of the same compound?
Answer: 87%

Question: And the “Mean VEGF concentration in conditioned media at maximal decrease” value ([1]; hypoxic (1% oxygen))?
Answer: 175 pg/mL

Question: What about the “Decrease in VEGF concentration in conditioned media” value ([1]; normoxic) of the same compound?
Answer: 39%

Question: What about the “Mean VEGF concentration in conditioned media in the presence of compound” value ([1]; normoxic) of the same compound?
Answer: 157 pg/mL

Question: What about the EC50 ([2]; A-375, Melanoma, A375, hypoxic (1% oxygen), 48 hours) of the same compound?
Answer: 50 nM

Question: And the EC50 ([2]; A-431, Epidermoid, A431, 48 hours)?
Answer: 10 nM

Question: And the EC50 ([2]; Breast, MDA-MB-468, hypoxic (1% oxygen), 48 hours)?
Answer: 5 nM

Question: What about the EC50 ([2]; Cervical, HeLa, hypoxic (1% oxygen), 48 hours) of the same compound?
Answer: 2 nM

Question: And the EC50 ([2]; Colorectal, HCT-116, 48 hours)?
Answer: 10 nM

Question: And the EC50 ([2]; Gastric, AGS, 48 hours)?
Answer: 0.1 nM

Question: And the EC50 ([2]; Gastric, Kato III, hypoxic (1% oxygen), 48 hours)?
Answer: 10 nM

Question: What about the EC50 ([2]; HT-1080, Fibrosarcoma, HT1080, 48 hours) of the same compound?
Answer: 10 nM

Question: And the EC50 ([2]; Lung, A549, 48 hours)?
Answer: 50 nM

Question: And the EC50 ([2]; Lung, Calu-6, hypoxic (1% oxygen), 48 hours)?
Answer: 7 nM

Question: What about the EC50 ([2]; Lung, NCI H460, 48 hours) of the same compound?
Answer: 10 nM

Question: And the EC50 ([2]; MDA-MB-231, 48 h)?
Answer: 5 nM

Question: And the EC50 ([2]; Neuroblastoma, SY5Y, hypoxic (1% oxygen), 48 hours)?
Answer: 5 nM

Question: And the EC50 ([2]; Pancreas, Capan-1, hypoxic (1% oxygen), 48 hours)?
Answer: 5 nM

Question: What about the EC50 ([2]; Prostate, LNCaP, hypoxic (1% oxygen), 48 hours) of the same compound?
Answer: 15 nM

Question: And the EC50 ([2]; Renal cell, HEK293, 48 hours)?
Answer: 10 nM

Question: And the EC50 ([2]; SK-OV-3, Ovarian, SKOV3, hypoxic (1% oxygen), 48 hours)?
Answer: 10 nM

Question: What about the EC50 ([2]; SNU1, Gastric, SNU-1, 48 hours) of the same compound?
Answer: 0.1 nM

Question: What about the “Difference vs. vehicle in median number of days to reach 1000 mm^3” value [3] of the same compound?
Answer: 8** Days

Question: And the “Mean difference in tumor growth rate at the Day that the vehicle-treated tumors taken off study” value ([3]; Day 11)?
Answer: 59%**

Question: And the “Final mean terminal tumor size in treatment group” value ([3]; Xeno)?
Answer: 1460 mm^3

Question: What about the “Time to tumor progression (time to reach ≧1000 mm^3)” value ([4]; 10 mg/kg M-W-F) of the same compound?
Answer: prolonged

Question: What about the “Toxicity on observing the animals” value ([4]; LNCaP xenograft mice) of the same compound?
Answer: no evidence of toxicity

Question: What about the “Mean % Inhibition of Tumor Size vs Vehicle at Day 35” value [4, 13] of the same compound?
Answer: 36%

Question: What about the “Median Time to Tumor Size ≧1000 mm^3” value [4, 13] of the same compound?
Answer: 38 days

Question: And the “Tmax of radioactivity in blood and plasma” value ([5]; both sexes)?
Answer: 4 hours postdose

Question: What about the Blood-brain barrier penetration [5] of the same compound?
Answer: penetrates the blood-brain barrier

Question: And the “Overt signs of toxicity” value [5]?
Answer: no overt signs of toxicity

Question: What about the EC50 ([6]; Homo sapiens, ASPC1, ASPC-1 (Pancreas), 48 hours) of the same compound?
Answer: > 30000 nM

Question: And the EC50 ([6]; Homo sapiens, HCT-116, HCT116 (Colorectal), 48 hours)?
Answer: 10 nM

Question: And the EC50 ([6]; Homo sapiens, HT-1080, HT1080 (Fibrosarcoma), 48 hours)?
Answer: 10 nM

Question: And the EC50 ([6]; Homo sapiens, PL45, PL-45, 48 hours)?
Answer: > 30000 nM

Question: And the EC50 ([6]; Homo sapiens, HEK293 (Renal cell), 48 hours)?
Answer: 10 nM

Question: And the EC50 ([6]; Homo sapiens, HPAF-2, 48 hours)?
Answer: > 30000 nM

Question: What about the EC50 ([6]; Homo sapiens, HeLa (Cervical), 48 hours) of the same compound?
Answer: 2 nM

Question: What about the EC50 ([6]; Homo sapiens, NCI H460 (Lung), 48 hours) of the same compound?
Answer: 10 nM

Question: And the EC50 ([6]; Homo sapiens, U-87MG (Glioblastoma), 48 hours)?
Answer: > 30000 nM

Question: And the EC50 ([6]; PC-3, 48 hours)?
Answer: > 30000 nM

Question: What about the “BrdU staining of tumor cells (proportion of cells in S phase)” value [7] of the same compound?
Answer: increased BrdU staining

Question: And the Oral bioavailability [8]?
Answer: orally bioavailable

Question: And the fraction unbound [9]?
Answer: ≤ 0.005

Question: What about the “Inhibition of CYPC19” value [10] of the same compound?
Answer: No meaningful inhibition

Question: And the “Grade of treatment emergent adverse events and laboratory abnormalities” value ([11]; healthy volunteers, 7 days)?
Answer: generally Grade 1

Question: And the QTc prolongation ([11]; healthy volunteers, 7 days)?
Answer: no meaningful QTc prolongation

Question: What about the Maximum tolerated dose ([11]; through the highest dose level tested ([…] TID)) of the same compound?
Answer: No MTD was established

Question: And the “Dose of maximal exposures” value [12]?
Answer: 30 mg/kg/dose BID

Question: What about the “Target organ of toxicity” value ([12]; high dose) of the same compound?
Answer: small intestine
